How the values were obtained:
Assay in all cases: radiometric filter-binding kinase assay, Kinase HotSpot
Details in all cases: compound 0.5 µM; ATP 10 µM
CSNK2A2 (human) = CSNK2A2 (human) (UniProt P19784)
MAP3K2 (human) = MAP3K2 (human) (UniProt Q9Y2U5)
PNCK (human) = PNCK (human) (UniProt Q6P2M8)
GSK3B (human) = GSK3B (human) (UniProt P49841)
AURKB (human) = AURKB (human) (UniProt Q96GD4)
EGFR (human) = EGFR (human) (UniProt P00533)
EPHB2 (human) = EPHB2 (human) (UniProt P29323)
HIPK4 (human) = HIPK4 (human) (UniProt Q8NE63)
PRKCZ (human) = PRKCZ (human) (UniProt Q05513)
LTK (human) = LTK (human) (UniProt P29376)
RPS6KA4 KD2 (human) = RPS6KA4 KD2 (human) (UniProt O75676)
ROS1 (human) = ROS1 (human) (UniProt P08922)
STK25 (human) = STK25 (human) (UniProt O00506)
MAP3K10 (human) = MAP3K10 (human) (UniProt Q02779)
STK3 (human) = STK3 (human) (UniProt Q13188)
Chain of STK3 (human) (Q13188 whole entry, looked up): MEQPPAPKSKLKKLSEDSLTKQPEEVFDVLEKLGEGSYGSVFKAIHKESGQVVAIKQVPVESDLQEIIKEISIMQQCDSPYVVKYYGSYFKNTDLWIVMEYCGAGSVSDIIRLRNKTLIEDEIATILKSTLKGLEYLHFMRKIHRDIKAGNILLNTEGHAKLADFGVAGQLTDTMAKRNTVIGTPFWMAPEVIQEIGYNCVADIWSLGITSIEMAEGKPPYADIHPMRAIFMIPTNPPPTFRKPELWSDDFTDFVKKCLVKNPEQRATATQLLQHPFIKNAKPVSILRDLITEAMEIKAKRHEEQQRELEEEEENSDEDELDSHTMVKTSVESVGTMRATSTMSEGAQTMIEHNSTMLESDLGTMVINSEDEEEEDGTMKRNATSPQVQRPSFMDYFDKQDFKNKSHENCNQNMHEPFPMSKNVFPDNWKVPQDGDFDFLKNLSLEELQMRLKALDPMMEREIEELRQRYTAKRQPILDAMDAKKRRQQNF

MAPKAPK2 (human) = MAPKAPK2 (human) (UniProt P49137)
PHKG2 (human) = PHKG2 (human) (UniProt P15735)
Chain of PHKG2 (human) (P15735 whole entry, looked up): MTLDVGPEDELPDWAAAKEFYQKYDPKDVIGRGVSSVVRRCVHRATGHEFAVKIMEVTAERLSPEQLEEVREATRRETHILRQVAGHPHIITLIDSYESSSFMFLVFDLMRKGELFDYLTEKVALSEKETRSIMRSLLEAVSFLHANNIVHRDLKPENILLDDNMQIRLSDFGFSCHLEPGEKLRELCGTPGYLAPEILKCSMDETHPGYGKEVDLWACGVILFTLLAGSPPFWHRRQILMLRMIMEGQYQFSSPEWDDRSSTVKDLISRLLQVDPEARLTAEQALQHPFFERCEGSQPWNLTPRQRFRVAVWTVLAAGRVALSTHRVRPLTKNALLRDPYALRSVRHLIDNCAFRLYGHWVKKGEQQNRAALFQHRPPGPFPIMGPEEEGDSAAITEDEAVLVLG

TEC (human) = TEC (human) (UniProt P42680)
MAP4K4 (human) = MAP4K4 (human) (UniProt O95819)
CAMK1D (human) = CAMK1D (human) (UniProt Q8IU85)
MAP3K11 (human) = MAP3K11 (human) (UniProt Q16584)
Chain of MAP3K11 (human) (Q16584 whole entry, looked up): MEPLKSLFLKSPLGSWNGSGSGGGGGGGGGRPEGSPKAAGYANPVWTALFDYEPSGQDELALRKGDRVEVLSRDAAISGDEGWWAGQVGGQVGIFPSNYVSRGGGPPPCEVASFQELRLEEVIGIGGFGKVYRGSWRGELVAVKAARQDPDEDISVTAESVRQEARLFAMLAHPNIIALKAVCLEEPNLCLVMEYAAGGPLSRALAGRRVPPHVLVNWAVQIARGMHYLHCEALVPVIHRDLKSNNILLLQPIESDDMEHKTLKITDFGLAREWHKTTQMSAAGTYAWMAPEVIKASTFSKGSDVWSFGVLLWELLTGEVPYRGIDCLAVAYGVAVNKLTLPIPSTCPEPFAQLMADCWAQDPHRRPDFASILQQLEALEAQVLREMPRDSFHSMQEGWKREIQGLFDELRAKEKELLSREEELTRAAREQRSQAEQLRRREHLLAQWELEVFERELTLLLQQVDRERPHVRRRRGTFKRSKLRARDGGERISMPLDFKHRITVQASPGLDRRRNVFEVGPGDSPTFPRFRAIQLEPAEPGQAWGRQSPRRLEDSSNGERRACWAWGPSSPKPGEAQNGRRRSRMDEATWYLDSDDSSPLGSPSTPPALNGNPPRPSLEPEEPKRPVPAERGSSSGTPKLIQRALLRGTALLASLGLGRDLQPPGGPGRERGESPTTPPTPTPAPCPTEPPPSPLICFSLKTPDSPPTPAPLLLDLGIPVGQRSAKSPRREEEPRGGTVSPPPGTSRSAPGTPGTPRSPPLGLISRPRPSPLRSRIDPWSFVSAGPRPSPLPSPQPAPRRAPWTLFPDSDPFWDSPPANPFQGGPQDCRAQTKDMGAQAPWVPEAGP

RPS6KB2 (human) = RPS6KB2 (human) (UniProt Q9UBS0)
PKN2 (human) = PKN2 (human) (UniProt Q16513)
PRKCG (human) = PRKCG (human) (UniProt P05129)
MAP3K8 (human) = MAP3K8 (human) (UniProt P41279)
ABL1 (human) = ABL1 (human) (UniProt P00519)
MAPK10 (human) = MAPK10 (human) (UniProt P53779)
MAP3K9 (human) = MAP3K9 (human) (UniProt P80192)
EPHA7 (human) = EPHA7 (human) (UniProt Q15375)
PASK (human) = PASK (human) (UniProt Q96RG2)
TAOK2 (human) = TAOK2 (human) (UniProt Q9UL54)
Chain of TAOK2 (human) (Q9UL54 whole entry, looked up): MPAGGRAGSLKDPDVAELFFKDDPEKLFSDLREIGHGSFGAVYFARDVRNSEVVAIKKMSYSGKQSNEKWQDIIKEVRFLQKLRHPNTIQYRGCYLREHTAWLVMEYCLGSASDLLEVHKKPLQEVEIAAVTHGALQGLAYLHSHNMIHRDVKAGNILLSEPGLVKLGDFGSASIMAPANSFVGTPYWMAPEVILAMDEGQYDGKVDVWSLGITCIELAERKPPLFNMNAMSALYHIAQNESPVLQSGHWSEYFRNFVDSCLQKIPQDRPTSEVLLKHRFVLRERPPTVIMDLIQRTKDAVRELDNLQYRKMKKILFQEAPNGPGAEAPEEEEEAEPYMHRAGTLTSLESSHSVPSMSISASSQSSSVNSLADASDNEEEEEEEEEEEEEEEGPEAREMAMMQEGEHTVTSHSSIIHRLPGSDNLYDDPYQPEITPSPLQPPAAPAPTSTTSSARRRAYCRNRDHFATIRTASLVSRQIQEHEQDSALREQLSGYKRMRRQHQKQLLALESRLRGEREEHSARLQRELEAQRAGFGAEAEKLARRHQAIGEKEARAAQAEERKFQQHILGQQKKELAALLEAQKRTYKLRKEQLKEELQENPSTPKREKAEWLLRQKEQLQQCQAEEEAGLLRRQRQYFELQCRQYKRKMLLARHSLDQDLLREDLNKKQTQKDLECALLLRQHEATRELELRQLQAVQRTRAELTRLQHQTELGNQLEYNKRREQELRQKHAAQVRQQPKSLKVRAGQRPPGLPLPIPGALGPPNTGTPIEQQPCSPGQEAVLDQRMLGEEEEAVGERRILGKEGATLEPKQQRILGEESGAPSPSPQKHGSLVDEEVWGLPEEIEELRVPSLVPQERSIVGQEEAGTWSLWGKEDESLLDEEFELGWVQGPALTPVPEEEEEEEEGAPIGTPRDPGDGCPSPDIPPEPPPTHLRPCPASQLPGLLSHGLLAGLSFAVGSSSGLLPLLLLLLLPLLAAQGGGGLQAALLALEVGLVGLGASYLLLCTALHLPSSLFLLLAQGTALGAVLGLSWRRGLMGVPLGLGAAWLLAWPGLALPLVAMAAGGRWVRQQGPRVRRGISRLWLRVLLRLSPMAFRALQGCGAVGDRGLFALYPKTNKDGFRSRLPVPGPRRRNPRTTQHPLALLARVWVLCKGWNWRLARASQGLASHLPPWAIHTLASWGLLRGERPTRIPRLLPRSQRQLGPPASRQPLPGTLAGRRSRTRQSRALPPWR

MAP2K2 (human) = MAP2K2 (human) (UniProt P36507)
ACVR1B (human) = ACVR1B (human) (UniProt P36896)
Chain of ACVR1B (human) (P36896 whole entry, looked up): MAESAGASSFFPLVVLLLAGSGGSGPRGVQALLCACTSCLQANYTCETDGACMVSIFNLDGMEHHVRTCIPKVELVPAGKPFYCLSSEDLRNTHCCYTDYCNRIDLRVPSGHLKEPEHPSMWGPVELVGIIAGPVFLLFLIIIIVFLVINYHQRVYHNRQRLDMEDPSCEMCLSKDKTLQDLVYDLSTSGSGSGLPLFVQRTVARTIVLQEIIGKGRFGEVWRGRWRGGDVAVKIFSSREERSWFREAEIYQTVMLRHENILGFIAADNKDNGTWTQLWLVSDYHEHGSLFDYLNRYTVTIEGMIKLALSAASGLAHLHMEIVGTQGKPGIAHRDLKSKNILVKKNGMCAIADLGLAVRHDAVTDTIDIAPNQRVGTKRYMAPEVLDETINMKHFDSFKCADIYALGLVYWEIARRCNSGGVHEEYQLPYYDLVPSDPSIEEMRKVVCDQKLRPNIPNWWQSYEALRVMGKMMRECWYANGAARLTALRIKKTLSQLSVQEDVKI

CDK4 CCND3 (human) = CDK4 CCND3 (human) (UniProt P30281+P11802)
Chain of CDK4 CCND3 (human) (P11802 whole entry, looked up): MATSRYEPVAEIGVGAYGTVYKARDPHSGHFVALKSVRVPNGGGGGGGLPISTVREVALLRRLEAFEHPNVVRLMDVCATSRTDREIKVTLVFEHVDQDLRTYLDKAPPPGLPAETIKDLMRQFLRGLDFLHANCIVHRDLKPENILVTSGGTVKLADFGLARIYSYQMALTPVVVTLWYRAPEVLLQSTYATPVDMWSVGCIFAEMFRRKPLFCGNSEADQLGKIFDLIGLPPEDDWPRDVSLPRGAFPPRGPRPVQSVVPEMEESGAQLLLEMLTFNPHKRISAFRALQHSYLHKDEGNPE
Chain of CDK4 CCND3 (human) (P30281 whole entry, looked up): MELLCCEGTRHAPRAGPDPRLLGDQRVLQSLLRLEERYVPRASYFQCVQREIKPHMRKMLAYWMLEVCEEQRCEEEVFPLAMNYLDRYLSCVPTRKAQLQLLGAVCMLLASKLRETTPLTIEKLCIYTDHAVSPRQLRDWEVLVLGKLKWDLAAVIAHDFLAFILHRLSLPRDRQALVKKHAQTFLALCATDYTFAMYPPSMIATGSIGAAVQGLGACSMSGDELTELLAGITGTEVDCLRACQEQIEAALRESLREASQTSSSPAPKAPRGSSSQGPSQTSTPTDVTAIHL

CLK1 (human) = CLK1 (human) (UniProt P49759)
ITK (human) = ITK (human) (UniProt Q08881)
EPHA5 (human) = EPHA5 (human) (UniProt P54756)
PRKCI (human) = PRKCI (human) (UniProt P41743)
Chain of PRKCI (human) (P41743 whole entry, looked up): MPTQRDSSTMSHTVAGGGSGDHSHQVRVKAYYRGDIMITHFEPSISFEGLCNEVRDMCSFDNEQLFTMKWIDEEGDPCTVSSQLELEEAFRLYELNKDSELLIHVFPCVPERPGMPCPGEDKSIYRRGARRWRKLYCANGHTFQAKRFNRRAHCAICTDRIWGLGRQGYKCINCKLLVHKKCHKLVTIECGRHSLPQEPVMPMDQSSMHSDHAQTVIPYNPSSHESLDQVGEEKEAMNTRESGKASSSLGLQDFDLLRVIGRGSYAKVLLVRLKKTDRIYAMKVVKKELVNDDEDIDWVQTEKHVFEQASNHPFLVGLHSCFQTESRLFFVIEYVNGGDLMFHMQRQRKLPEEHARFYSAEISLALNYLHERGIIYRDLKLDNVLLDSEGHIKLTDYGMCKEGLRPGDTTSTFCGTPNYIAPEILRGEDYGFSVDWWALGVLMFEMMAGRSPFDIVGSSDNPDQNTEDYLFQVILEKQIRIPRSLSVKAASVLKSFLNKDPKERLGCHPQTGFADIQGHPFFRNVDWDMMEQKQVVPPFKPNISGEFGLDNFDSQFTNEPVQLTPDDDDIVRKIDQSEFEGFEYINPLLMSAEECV

TSSK1B (human) = TSSK1B (human) (UniProt Q9BXA7)
ULK2 (human) = ULK2 (human) (UniProt Q8IYT8)
CDK5 CDK5R1 p35 (human) = CDK5 CDK5R1 p35 (human) (UniProt Q00535+Q15078)
MARK3 (human) = MARK3 (human) (UniProt P27448)

Chain of CSNK2A2 (human) (P19784 whole entry, looked up): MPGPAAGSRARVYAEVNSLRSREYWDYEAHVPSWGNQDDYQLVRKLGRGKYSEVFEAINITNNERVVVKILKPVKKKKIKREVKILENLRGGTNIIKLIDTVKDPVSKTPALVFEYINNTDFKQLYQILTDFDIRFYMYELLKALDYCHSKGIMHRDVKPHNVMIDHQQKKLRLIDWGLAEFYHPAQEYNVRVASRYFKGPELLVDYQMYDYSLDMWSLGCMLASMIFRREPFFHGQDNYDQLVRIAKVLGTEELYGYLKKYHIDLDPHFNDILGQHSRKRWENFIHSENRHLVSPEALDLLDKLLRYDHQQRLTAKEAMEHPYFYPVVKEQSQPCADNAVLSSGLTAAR

Work on `c1ccc(-c2n[nH]cc2-c2ccnc3ccccc23)nc1` yielded a residual activity (CSNK2A2 (human)) of 96.7%, a residual activity (MAP3K2 (human)) of 91.2% and a residual activity (PNCK (human)) of 98.3%. For the same compound, the residual activity (GSK3B (human)) was 95.2%, the residual activity (AURKB (human)) was 96% and the residual activity (EGFR (human)) was 81.8%. The residual activity (EPHB2 (human)) was 103%, the residual activity (HIPK4 (human)) was 89.9% and the residual activity (PRKCZ (human)) was 115%. The residual activity (LTK (human)) was 92.8%, the residual activity (RPS6KA4 KD2 (human)) was 87.2% and the residual activity (ROS1 (human)) was 102%. The residual activity (STK25 (human)) was 96.9%, the residual activity (MAP3K10 (human)) was 104% and the residual activity (STK3 (human)) was 102%. For the same compound, the residual activity (MAPKAPK2 (human)) was 100%, the residual activity (PHKG2 (human)) was 97.7% and the residual activity (TEC (human)) was 106%. The residual activity (MAP4K4 (human)) was 48.3%, the residual activity (CAMK1D (human)) was 100% and the residual activity (MAP3K11 (human)) was 96.5%. The residual activity (RPS6KB2 (human)) was 101%, the residual activity (PKN2 (human)) was 91.4% and the residual activity (PRKCG (human)) was 117%. It also gave a residual activity (MAP3K8 (human)) of 91.1%, a residual activity (ABL1 (human)) of 77.1% and a residual activity (MAPK10 (human)) of 92.9%. The residual activity (MAP3K9 (human)) was 90.4%, the residual activity (EPHA7 (human)) was 91.4% and the residual activity (PASK (human)) was 77.1%. The residual activity (TAOK2 (human)) was 96.8%, the residual activity (MAP2K2 (human)) was 106% and the residual activity (ACVR1B (human)) was 43.2%. It also gave a residual activity (CDK4 CCND3 (human)) of 102%, a residual activity (CLK1 (human)) of 106% and a residual activity (ITK (human)) of 102%. For the same compound, the residual activity (EPHA5 (human)) was 94.9%, the residual activity (PRKCI (human)) was 99% and the residual activity (TSSK1B (human)) was 104%. It also gave a residual activity (ULK2 (human)) of 95.6%, a residual activity (CDK5 CDK5R1 p35 (human)) of 98.6% and a residual activity (MARK3 (human)) of 87.5%.
Compound `Cc1ccc(NC2=CC(=O)c3sc(C)nc3C2=O)cc1` has a residual activity (CSNK2A2 (human)) of 87.8%, a residual activity (MAP3K2 (human)) of 93.3% and a residual activity (PNCK (human)) of 95.3%. For the same compound, the residual activity (GSK3B (human)) was 82%, the residual activity (AURKB (human)) was 89.8% and the residual activity (EGFR (human)) was 97.9%. The residual activity (EPHB2 (human)) was 100%, the residual activity (HIPK4 (human)) was 93.7% and the residual activity (PRKCZ (human)) was 98.2%. It also gave a residual activity (LTK (human)) of 88.8%, a residual activity (RPS6KA4 KD2 (human)) of 88.4% and a residual activity (ROS1 (human)) of 107%. The residual activity (STK25 (human)) was 93.4%, the residual activity (MAP3K10 (human)) was 94.6% and the residual activity (STK3 (human)) was 105%. For the same compound, the residual activity (MAPKAPK2 (human)) was 97.6%, the residual activity (PHKG2 (human)) was 96.3% and the residual activity (TEC (human)) was 117%. For the same compound, the residual activity (MAP4K4 (human)) was 84.5%, the residual activity (CAMK1D (human)) was 100% and the residual activity (MAP3K11 (human)) was 101%. It also gave a residual activity (RPS6KB2 (human)) of 95.2%, a residual activity (PKN2 (human)) of 115% and a residual activity (PRKCG (human)) of 77%. It also gave a residual activity (MAP3K8 (human)) of 90.2%, a residual activity (ABL1 (human)) of 90.8% and a residual activity (MAPK10 (human)) of 105%. The residual activity (MAP3K9 (human)) was 86.7%, the residual activity (EPHA7 (human)) was 92.3% and the residual activity (PASK (human)) was 89.4%. It also gave a residual activity (TAOK2 (human)) of 96.6%, a residual activity (MAP2K2 (human)) of 98.8% and a residual activity (ACVR1B (human)) of 110%. For the same compound, the residual activity (CDK4 CCND3 (human)) was 93.7%, the residual activity (CLK1 (human)) was 100% and the residual activity (ITK (human)) was 98.6%. The residual activity (EPHA5 (human)) was 98.2%, the residual activity (PRKCI (human)) was 96.9% and the residual activity (TSSK1B (human)) was 115%. It also gave a residual activity (ULK2 (human)) of 96.9%, a residual activity (CDK5 CDK5R1 p35 (human)) of 86.3% and a residual activity (MARK3 (human)) of 95.1%.
`Cc1ccc(S(=O)(=O)/C=C/C#N)cc1` gave a residual activity (CSNK2A2 (human)) of 97.9%, a residual activity (MAP3K2 (human)) of 91.8% and a residual activity (PNCK (human)) of 107%. It also gave a residual activity (GSK3B (human)) of 109%, a residual activity (AURKB (human)) of 92.3% and a residual activity (EGFR (human)) of 97.5%. For the same compound, the residual activity (EPHB2 (human)) was 104%, the residual activity (HIPK4 (human)) was 108% and the residual activity (PRKCZ (human)) was 101%. It also gave a residual activity (LTK (human)) of 114%, a residual activity (RPS6KA4 KD2 (human)) of 82.8% and a residual activity (ROS1 (human)) of 94.1%. It also gave a residual activity (STK25 (human)) of 89.6%, a residual activity (MAP3K10 (human)) of 105% and a residual activity (STK3 (human)) of 93.6%. It also gave a residual activity (MAPKAPK2 (human)) of 93.7%, a residual activity (PHKG2 (human)) of 109% and a residual activity (TEC (human)) of 144%. The residual activity (MAP4K4 (human)) was 106%, the residual activity (CAMK1D (human)) was 108% and the residual activity (MAP3K11 (human)) was 98.2%. For the same compound, the residual activity (RPS6KB2 (human)) was 109%, the residual activity (PKN2 (human)) was 81.5% and the residual activity (PRKCG (human)) was 92.9%. For the same compound, the residual activity (MAP3K8 (human)) was 96.2%, the residual activity (ABL1 (human)) was 98.7% and the residual activity (MAPK10 (human)) was 107%. For the same compound, the residual activity (MAP3K9 (human)) was 96.9%, the residual activity (EPHA7 (human)) was 99.8% and the residual activity (PASK (human)) was 99.3%. For the same compound, the residual activity (TAOK2 (human)) was 89.7%, the residual activity (MAP2K2 (human)) was 91% and the residual activity (ACVR1B (human)) was 107%. The residual activity (CDK4 CCND3 (human)) was 100%, the residual activity (CLK1 (human)) was 107% and the residual activity (ITK (human)) was 102%. It also gave a residual activity (EPHA5 (human)) of 111%, a residual activity (PRKCI (human)) of 90.3% and a residual activity (TSSK1B (human)) of 97.4%. It also gave a residual activity (ULK2 (human)) of 110%, a residual activity (CDK5 CDK5R1 p35 (human)) of 97% and a residual activity (MARK3 (human)) of 100%.
For `CCN(CC)C(=O)c1ccc(Nc2nc(OCC3CCCCC3)c3nc[nH]c3n2)cc1`, the residual activity (CSNK2A2 (human)) was 90.9%, the residual activity (MAP3K2 (human)) was 25.3% and the residual activity (PNCK (human)) was 117%. For the same compound, the residual activity (GSK3B (human)) was 85%, the residual activity (AURKB (human)) was 30.1% and the residual activity (EGFR (human)) was 88.5%. For the same compound, the residual activity (EPHB2 (human)) was 93.7%, the residual activity (HIPK4 (human)) was 96.5% and the residual activity (PRKCZ (human)) was 95.8%. The residual activity (LTK (human)) was 66.1%, the residual activity (RPS6KA4 KD2 (human)) was 79.8% and the residual activity (ROS1 (human)) was 69.9%. For the same compound, the residual activity (STK25 (human)) was 85.2%, the residual activity (MAP3K10 (human)) was 15.2% and the residual activity (STK3 (human)) was 62.1%. The residual activity (MAPKAPK2 (human)) was 99.2%, the residual activity (PHKG2 (human)) was 96.6% and the residual activity (TEC (human)) was 63%. It also gave a residual activity (MAP4K4 (human)) of 85.9%, a residual activity (CAMK1D (human)) of 101% and a residual activity (MAP3K11 (human)) of 5.55%. It also gave a residual activity (RPS6KB2 (human)) of 102%, a residual activity (PKN2 (human)) of 91.8% and a residual activity (PRKCG (human)) of 94.5%. It also gave a residual activity (MAP3K8 (human)) of 101%, a residual activity (ABL1 (human)) of 67.1% and a residual activity (MAPK10 (human)) of 108%. For the same compound, the residual activity (MAP3K9 (human)) was 3.8%, the residual activity (EPHA7 (human)) was 72.8% and the residual activity (PASK (human)) was 103%. It also gave a residual activity (TAOK2 (human)) of 66%, a residual activity (MAP2K2 (human)) of 94% and a residual activity (ACVR1B (human)) of 101%. It also gave a residual activity (CDK4 CCND3 (human)) of 59.2%, a residual activity (CLK1 (human)) of 74.1% and a residual activity (ITK (human)) of 57.3%. The residual activity (EPHA5 (human)) was 95%, the residual activity (PRKCI (human)) was 97.2% and the residual activity (TSSK1B (human)) was 15.3%. The residual activity (ULK2 (human)) was 84.9%, the residual activity (CDK5 CDK5R1 p35 (human)) was 77.1% and the residual activity (MARK3 (human)) was 85.4%.

Source: the kinase profiling compilation of Christmann-Franck et al. (2016)
